Where two headings read alike, the source gives them in different places.
What was measured:
A673 cells = experiment: Cellular potency in A673 cells; assay type: cell-based; conditions: for IC50: Homo sapiens, A673, Table 3, A673 cells; for Ratio of Biochemical Potency: Cellular Potency: Table 3, ratio >0.9 is an indicator of Cyclin K degradation
Human CDK7/CycH/MAT1 = Human CDK7/CycH/MAT1 (Homo sapiens (Human), UniProt P50613); experiment: Radiometric protein kinase assay (33PanQinase Activity Assay), CDK7; assay type: biochemical; conditions: Table 1; ATP 3 μM
Human CDK7/CycH/MAT1, sequence (P50613 whole entry): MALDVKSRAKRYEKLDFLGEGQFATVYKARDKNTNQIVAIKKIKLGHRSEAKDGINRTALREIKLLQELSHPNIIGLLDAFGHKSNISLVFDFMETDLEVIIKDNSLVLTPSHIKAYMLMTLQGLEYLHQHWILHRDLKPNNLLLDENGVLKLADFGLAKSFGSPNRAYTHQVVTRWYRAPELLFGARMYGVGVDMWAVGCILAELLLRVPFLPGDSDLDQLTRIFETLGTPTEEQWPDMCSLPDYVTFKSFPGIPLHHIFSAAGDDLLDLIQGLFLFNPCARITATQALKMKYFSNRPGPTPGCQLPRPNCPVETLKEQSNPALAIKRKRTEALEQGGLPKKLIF
Human CDK7/CycH/MAT1, sequence (P51946 whole entry partner): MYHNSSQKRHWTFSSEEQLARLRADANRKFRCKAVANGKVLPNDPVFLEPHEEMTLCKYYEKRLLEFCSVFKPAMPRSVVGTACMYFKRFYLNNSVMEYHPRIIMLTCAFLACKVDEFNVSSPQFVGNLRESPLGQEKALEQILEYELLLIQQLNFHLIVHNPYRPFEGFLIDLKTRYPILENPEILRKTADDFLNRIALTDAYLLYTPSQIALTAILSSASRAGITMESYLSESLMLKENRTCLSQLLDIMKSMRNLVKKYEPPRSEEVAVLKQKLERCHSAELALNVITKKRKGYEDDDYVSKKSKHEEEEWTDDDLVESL
Human CDK7/CycH/MAT1, sequence (P51948 whole entry partner): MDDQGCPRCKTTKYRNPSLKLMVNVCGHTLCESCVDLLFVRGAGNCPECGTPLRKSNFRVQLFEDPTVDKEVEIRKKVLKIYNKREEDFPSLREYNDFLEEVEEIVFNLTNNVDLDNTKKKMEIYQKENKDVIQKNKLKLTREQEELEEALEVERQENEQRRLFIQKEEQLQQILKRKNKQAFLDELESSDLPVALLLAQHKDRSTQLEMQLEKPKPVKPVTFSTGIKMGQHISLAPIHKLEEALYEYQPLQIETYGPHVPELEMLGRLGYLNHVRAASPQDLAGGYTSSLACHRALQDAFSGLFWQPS
Procedure: (§1) A radiometric protein kinase assay (^33PanQinase® Activity Assay) was used for measuring the kinase activity of the two protein kinases (CDK12/CDK7). All kinase assays were performed in 96-well FlashPlates™ from PerkinElmer (Boston, MA, USA) in a 50 μL reaction volume.
(§2) The reaction cocktail was pipetted in four steps in the following order: • 20 μL of assay buffer (standard buffer) • 5 μL of ATP solution (in H2O) • 5 μL of test compound (in 10% DMSO) • 10 μL of substrate/10 μL of enzyme solution (premixed)
(§3) The reaction mixture was incubated at 30° C. for 60 min and then stopped by the addition of 2% (v/v) H3PO4. Plates were aspirated and washed two times with 200 μL 0.9% (w/v) NaCl. Incorporation of ^33Pi was determined with a microplate scintillation count (Microbeta, Wallac).
(§4) The fitting method used was a least-squares fit.

Human CDK12 wt/CycK = Human CDK12 wt/CycK (Homo sapiens (Human), UniProt Q9NYV4); experiment: Radiometric protein kinase assay (33PanQinase Activity Assay), CDK12; assay type: biochemical; conditions: for CDK7/CDK12: ratio greater than 1 indicated selectivity for CDK12
Human CDK12 wt/CycK, sequence (Q9NYV4 whole entry): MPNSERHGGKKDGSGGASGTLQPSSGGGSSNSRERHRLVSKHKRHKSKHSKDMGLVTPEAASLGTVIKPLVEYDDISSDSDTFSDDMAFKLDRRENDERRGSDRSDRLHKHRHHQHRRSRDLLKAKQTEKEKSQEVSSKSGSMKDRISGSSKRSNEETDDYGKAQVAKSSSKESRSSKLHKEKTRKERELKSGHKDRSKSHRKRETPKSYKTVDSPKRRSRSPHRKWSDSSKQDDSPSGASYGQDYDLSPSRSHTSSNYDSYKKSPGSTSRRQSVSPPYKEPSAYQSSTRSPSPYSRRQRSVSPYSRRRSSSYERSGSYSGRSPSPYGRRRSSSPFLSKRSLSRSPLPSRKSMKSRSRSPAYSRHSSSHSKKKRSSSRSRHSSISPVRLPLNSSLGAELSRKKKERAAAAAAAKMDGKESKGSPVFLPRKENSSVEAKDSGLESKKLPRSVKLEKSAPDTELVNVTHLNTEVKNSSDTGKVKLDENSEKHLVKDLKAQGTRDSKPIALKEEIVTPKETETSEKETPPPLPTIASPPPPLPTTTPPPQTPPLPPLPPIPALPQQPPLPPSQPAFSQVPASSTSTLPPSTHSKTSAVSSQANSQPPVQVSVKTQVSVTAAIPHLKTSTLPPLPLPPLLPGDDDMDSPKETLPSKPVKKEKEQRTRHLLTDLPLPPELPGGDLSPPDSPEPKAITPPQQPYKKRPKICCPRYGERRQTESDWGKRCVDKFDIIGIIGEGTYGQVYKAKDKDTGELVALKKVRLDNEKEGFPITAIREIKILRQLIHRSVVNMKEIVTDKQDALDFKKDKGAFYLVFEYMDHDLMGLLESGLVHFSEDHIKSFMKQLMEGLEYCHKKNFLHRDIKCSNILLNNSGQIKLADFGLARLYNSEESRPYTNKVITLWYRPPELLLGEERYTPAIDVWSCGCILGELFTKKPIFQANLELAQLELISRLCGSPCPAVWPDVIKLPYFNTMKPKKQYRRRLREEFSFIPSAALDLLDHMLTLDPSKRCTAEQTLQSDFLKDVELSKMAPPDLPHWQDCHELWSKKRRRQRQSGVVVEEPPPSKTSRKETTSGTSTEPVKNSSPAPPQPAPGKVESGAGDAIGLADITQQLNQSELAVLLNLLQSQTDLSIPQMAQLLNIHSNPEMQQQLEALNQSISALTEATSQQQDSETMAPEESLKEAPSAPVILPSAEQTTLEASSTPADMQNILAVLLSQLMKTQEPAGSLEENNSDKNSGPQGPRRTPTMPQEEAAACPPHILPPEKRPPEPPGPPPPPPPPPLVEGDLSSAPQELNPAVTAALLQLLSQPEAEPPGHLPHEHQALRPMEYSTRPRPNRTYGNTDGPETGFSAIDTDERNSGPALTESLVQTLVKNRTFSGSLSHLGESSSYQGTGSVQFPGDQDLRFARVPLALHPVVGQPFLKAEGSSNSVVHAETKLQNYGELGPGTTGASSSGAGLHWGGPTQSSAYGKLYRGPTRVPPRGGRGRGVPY
Human CDK12 wt/CycK, sequence (O75909 whole entry partner): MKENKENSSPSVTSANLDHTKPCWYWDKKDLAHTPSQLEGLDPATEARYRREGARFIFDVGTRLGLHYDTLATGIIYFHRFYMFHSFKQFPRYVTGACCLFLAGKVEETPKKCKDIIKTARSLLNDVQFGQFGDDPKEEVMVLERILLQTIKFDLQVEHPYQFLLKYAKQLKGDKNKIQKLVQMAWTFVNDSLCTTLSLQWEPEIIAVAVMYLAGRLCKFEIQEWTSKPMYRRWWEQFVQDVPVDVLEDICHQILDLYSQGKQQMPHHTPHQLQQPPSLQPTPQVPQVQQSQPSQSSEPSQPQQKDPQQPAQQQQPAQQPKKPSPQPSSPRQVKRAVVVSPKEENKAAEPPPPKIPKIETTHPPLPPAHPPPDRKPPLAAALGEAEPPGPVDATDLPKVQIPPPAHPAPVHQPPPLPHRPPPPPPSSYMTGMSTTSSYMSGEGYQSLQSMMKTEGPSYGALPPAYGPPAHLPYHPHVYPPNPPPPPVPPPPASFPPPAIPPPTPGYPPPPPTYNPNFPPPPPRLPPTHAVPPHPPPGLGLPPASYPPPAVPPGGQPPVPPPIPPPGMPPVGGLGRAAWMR
Procedure: as §1, §2, §3, §4

[1] = Table 1, ATP 0.3 μM, read-out: CDK12 IC50
[2] = Table 3, CDK12 kinase activity, read-out: Biochemical Potency IC50

SMILES	IC50 (A673 cells) [nM]	Ratio of Biochemical Potency: Cellular Potency (A673 cells)	IC50 (Human CDK7/CycH/MAT1) [nM]	IC50 (Human CDK12 wt/CycK; [1]) [nM]	CDK7/CDK12 (Human CDK12 wt/CycK; Table 1)	IC50 (Human CDK12 wt/CycK; [2]) [nM]
O[C@H]1CNCC[C@@H]1CNc1cc(NCc2cn3c(C4CC4)cccc3n2)n2ncc(C3CC3)c2n1 [H-APPAMP-030, (3R,4R)-4-(((3-cyclopropyl-7-(((5-cyclopropylimidazo[1,2-a]pyridin-2-yl)methyl)amino)pyrazolo[1,5-a]pyrimidin-5-yl)amino)methyl)piperidin-3-ol]	8.7	8.6	274	75	3.7	75
Cc1cc(C(F)(F)F)cc2nc(CNc3cc(NC[C@H]4CCNC[C@@H]4O)nc4c(C5CC5)cnn34)cn12 [H-APPAMP-039, (3R,4R)-4-(((3-cyclopropyl-7-(((5-methyl-7-(trifluoromethyl)imidazo[1,2-a]pyridin-2-yl)methyl)amino)pyrazolo[1,5-a]pyrimidin-5-yl)amino)methyl)piperidin-3-ol]	4	12	1830	48	38.1	48
Cc1cn2cc(CNc3cc(NC[C@H]4CCNC[C@@H]4O)nc4c(C5CC5)cnn34)nc2cc1C(F)(F)F [H-APPAMP-040, (3R,4R)-4-(((3-cyclopropyl-7-(((6-methyl-7-(trifluoromethyl)imidazo[1,2-a]pyridin-2-yl)methyl)amino)pyrazolo[1,5-a]pyrimidin-5-yl)amino)methyl)piperidin-3-ol]	5.4	8.9	1530	48	31.9	48
CC(C)c1cnn2c(NCc3nc4ccccc4[nH]3)cc(NC[C@H]3CCNC[C@@H]3O)nc12 [H-APPAMP-005, (3R,4R)-4-(((7-(((1H-benzo[d]imidazol-2-yl)methyl)amino)-3-isopropylpyrazolo[1,5-a]pyrimidin-5-yl)amino)methyl)piperidin-3-ol]	47	1.4	343	65	5.28	65
Cc1ccn2c(CNc3cc(NC[C@H]4CCNC[C@@H]4O)nc4c(C(C)C)cnn34)c(C)nc2c1 [H-APPAMP-015, (3R,4R)-4-(((7-(((2,7-dimethylimidazo[1,2-a]pyridin-3-yl)methyl)amino)-3-isopropylpyrazolo[1,5-a]pyrimidin-5-yl)amino)methyl)piperidin-3-ol]	151	1.8	3	277	0.01	277
O[C@H]1CNCC[C@@H]1CNc1cc(NCc2cn3c(C(F)(F)F)cccc3n2)n2ncc(C3CC3)c2n1 [H-APPAMP-037, (3R,4R)-4-(((3-cyclopropyl-7-(((5-(trifluoromethyl)imidazo[1,2-a]pyridin-2-yl)methyl)amino)pyrazolo[1,5-a]pyrimidin-5-yl)amino)methyl)piperidin-3-ol]	18.1	11	649	208	3.1	208
CC(C)c1cnn2c(NCc3ccc4ccccc4n3)cc(NC[C@H]3CCNC[C@@H]3O)nc12 [H-APPAMP-014, (3R,4R)-4-(((3-isopropyl-7-((quinolin-2-ylmethyl)amino)pyrazolo[1,5-a]pyrimidin-5-yl)amino)methyl)piperidin-3-ol]	7.3	10	19	75	0.3	75
Cc1cc(C)n2cc(CNc3cc(NC[C@H]4CCNC[C@@H]4O)nc4c(C5CC5)cnn34)nc2c1 [H-APPAMP-032, (3R,4R)-4-(((3-cyclopropyl-7-(((5,7-dimethylimidazo[1,2-a]pyridin-2-yl)methyl)amino)pyrazolo[1,5-a]pyrimidin-5-yl)amino)methyl)piperidin-3-ol]	6.1	7.4	859	45	19.1	45
CCc1cnn2c(NCc3cn4cc(C5CC5)cc(C(F)(F)F)c4n3)cc(NC[C@H]3CCNC[C@@H]3O)nc12 [H-APPAMP-038, (3R,4R)-4-(((7-(((6-cyclopropyl-8-(trifluoromethyl)imidazo[1,2-a]pyridin-2-yl)methyl)amino)-3-ethylpyrazolo[1,5-a]pyrimidin-5-yl)amino)methyl)piperidin-3-ol]	4.6	22	762	100	7.6	100
COc1cccc2nc(CNc3cc(NC[C@H]4CCNC[C@@H]4O)nc4c(C5CC5)cnn34)cn12 [H-APPAMP-027, (3R,4R)-4-(((3-cyclopropyl-7-(((5-methoxyimidazo[1,2-a]pyridin-2-yl)methyl)amino)pyrazolo[1,5-a]pyrimidin-5-yl)amino)methyl)piperidin-3-ol]	1.6	18	127	28	4.5	28
CC(C)c1cnn2c(NCc3ccc4c(c3)ncn4C)cc(NC[C@H]3CCNC[C@@H]3O)nc12 [H-APPAMP-006, (3R,4R)-4-(((3-isopropyl-7-(((1-methyl-1H-benzo[d]imidazol-5-yl)methyl)amino)pyrazolo[1,5-a]pyrimidin-5-yl)amino)methyl)piperidin-3-ol]	52	0.5	127	26.9	4.72	27
CC(C)c1cnn2c(NCc3cn4cc(F)ccc4n3)cc(NC[C@H]3CCNC[C@@H]3O)nc12 [H-APPAMP-011, (3R,4R)-4-(((7-(((6-fluoroimidazo[1,2-a]pyridin-2-yl)methyl)amino)-3-isopropylpyrazolo[1,5-a]pyrimidin-5-yl)amino)methyl)piperidin-3-ol]	6.3	5.2	168	33	5.1	33
Cc1csc2nc(CNc3cc(NC[C@H]4CCNC[C@@H]4O)nc4c(C(C)C)cnn34)cn12 [H-APPAMP-007, (3R,4R)-4-[[[3-isopropyl-7-[(3-methylimidazo[2,1-b]thiazol-6-yl)methylamino]pyrazolo[1,5-a]pyrimidin-5-yl]amino]methyl]piperidin-3-ol]	27	0.7	158	20	7.90	20
CC(C)c1cnn2c(NCc3cn4cc(Cl)ccc4n3)cc(NC[C@H]3CCNC[C@@H]3O)nc12 [H-APPAMP-012, (3R,4R)-4-(((7-(((6-chloroimidazo[1,2-a]pyridin-2-yl)methyl)amino)-3-isopropylpyrazolo[1,5-a]pyrimidin-5-yl)amino)methyl)piperidin-3-ol]	21.8	1.2	214	26	8.2	26

From patent publication US12473303B2, “4-[[(7-aminopyrazolo[1,5-a]pyrimidin-5-yl)amino methyl]piperidin-3-ol compounds and their therapeutic use” (CARRICK THERAPEUTICS LIMITED, priority 2019, dated 2025)
